{"source": "patent US20230095926A1", "about": "“PARASITE CONTROL IN RUMINANTS” (Intervet Inc., priority 2019, published 2023)", "system": "sheep body lice (Bovicola ovis), diazinon resistant", "test": "Long wool lice efficacy study, single subcutaneous dose, Merino sheep with 3 months wool growth", "assay_type": "in vivo", "experimental": "In this study the efficacy of fluralaner when administered once subcutaneously at doses of 1 and 2 mg/kg body weight against sheep body lice (Bovicola ovis) infestation on Merino sheep with 3 months wool growth was evaluated.\nFluralaner was administered to sheep in Groups 2 and 3 on Day 0 at 1 and 2 mg fluralaner/kg bodyweight respectively. Group 1 was left untreated as a negative control.\nPre-treatment lice counts were conducted on Day −1 and used to allocate sheep to treatment groups. Post-treatment lice counts were conducted 7, 14, 21, 42, 84 and 140 days±1-day post-treatment. Lice counts were performed as discussed in Example 1."}
{"smiles": "Cc1cc(C2=NOC(c3cc(Cl)cc(Cl)c3)(C(F)(F)F)C2)ccc1C(=O)NCC(=O)NCC(F)(F)F", "note": "(centres unmarked) [Fluralaner, 4-[5-(3,5-dichlorophenyl)-5-trifluoromethyl-4,5-dihydroisoxazol-3-yl]-2-methyl-N-[(2,2,2-trifluoro-ethylcarbamoyl)-methyl]-benzamide]", "values": [{"measurement": "time until activity reached the required level", "setting": "1.0 mg/kg dose rate", "result": "≤ 42", "unit": "days post-treatment"}, {"measurement": "Sheep Body Lice Efficacy Based on Geometric Means Day 7", "setting": "1 mg/kg s.c.", "result": 81.8, "unit": "%"}, {"measurement": "Sheep Body Lice Efficacy Based on Geometric Means Day 14", "setting": "1 mg/kg s.c.", "result": 97.2, "unit": "%"}, {"measurement": "Sheep Body Lice Efficacy Based on Geometric Means Day 21", "setting": "1 mg/kg s.c.", "result": 99.6, "unit": "%"}, {"measurement": "Sheep Body Lice Efficacy Based on Geometric Means Day 42", "setting": "1 mg/kg s.c.", "result": 100.0, "unit": "%"}, {"measurement": "Sheep Body Lice Efficacy Based on Geometric Means Day 84", "setting": "1 mg/kg s.c.", "result": 100.0, "unit": "%"}, {"measurement": "Sheep Body Lice Efficacy Based on Geometric Means Day 140", "setting": "1 mg/kg s.c.", "result": 100.0, "unit": "%"}, {"measurement": "time until efficacy reached the required level", "setting": "2.0 mg/kg dose rate", "result": "≤ 14", "unit": "days post-treatment"}, {"measurement": "Sheep Body Lice Efficacy Based on Geometric Means Day 7", "setting": "2 mg/kg s.c.", "result": 95.2, "unit": "%"}, {"measurement": "Sheep Body Lice Efficacy Based on Geometric Means Day 14", "setting": "2 mg/kg s.c.", "result": 100.0, "unit": "%"}, {"measurement": "Sheep Body Lice Efficacy Based on Geometric Means Day 21", "setting": "2 mg/kg s.c.", "result": 100.0, "unit": "%"}, {"measurement": "Sheep Body Lice Efficacy Based on Geometric Means Day 42", "setting": "2 mg/kg s.c.", "result": 100.0, "unit": "%"}, {"measurement": "Sheep Body Lice Efficacy Based on Geometric Means Day 84", "setting": "2 mg/kg s.c.", "result": 100.0, "unit": "%"}, {"measurement": "Sheep Body Lice Efficacy Based on Geometric Means Day 140", "setting": "2 mg/kg s.c.", "result": 100.0, "unit": "%"}]}
